Experimental findings from ChEMBL document CHEMBL1130567, “A simplified template approach towards the synthesis of a potent beta-3 adrenoceptor agonist at the human receptor” (Bioorg Med Chem Lett, 1997) are described below.

As usually defined, the EC50 is the concentration giving half of the maximal effect. Read a low EC50 as higher potency in that assay.

The target in the first assay is T1, Beta-3 adrenergic receptor (Homo sapiens, UniProt P13945). The assay can be described thus: Agonist efficacy for human Beta-3 adrenergic receptor expressed in chinese hamster ovary cells. It counts as functional, cell-based.
T1 sequence (P13945 whole entry): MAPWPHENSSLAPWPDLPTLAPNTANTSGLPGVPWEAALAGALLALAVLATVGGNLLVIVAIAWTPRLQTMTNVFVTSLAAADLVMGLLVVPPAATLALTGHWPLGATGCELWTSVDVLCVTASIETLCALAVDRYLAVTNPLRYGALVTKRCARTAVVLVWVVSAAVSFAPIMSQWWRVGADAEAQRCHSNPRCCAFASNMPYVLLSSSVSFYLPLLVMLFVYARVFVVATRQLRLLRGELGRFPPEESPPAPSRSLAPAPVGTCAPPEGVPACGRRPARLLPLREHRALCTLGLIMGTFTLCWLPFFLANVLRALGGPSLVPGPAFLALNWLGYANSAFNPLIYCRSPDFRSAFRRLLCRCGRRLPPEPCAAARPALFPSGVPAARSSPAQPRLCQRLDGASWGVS
In turn, `COc1ccc(CCNC[C@@H](O)COc2ccc(O)c(F)c2)cc1` had an EC50 of 7900 nM.
For `COc1ccc(CCNC[C@@H](O)COc2ccc(O)c(NS(C)(=O)=O)c2)cc1`, it took 400 nM to reach a half-maximal effect (EC50).
Still for that read-out and setting: as for `CC(C)(C)NCC(O)COc1cccc2[nH]c(=O)[nH]c12` (stereo unspecified) [CGP-12177], the figure is 2000 nM.
`COc1ccc(CCNC[C@@H](O)COc2cccc3[nH]c(=O)[nH]c23)cc1` had an EC50 of 2200 nM.
On the same count and under the same terms, under `COc1ccc(CCNC[C@@H](O)COc2ccc(O)c3c2CCC(=O)N3)cc1` stands 560 nM; under `COc1ccc(CCNC[C@@H](O)COc2ccc(O)c(O)c2)cc1`, 820 nM.
Same read-out and setting: under `COc1ccc(CCNC[C@@H](O)COc2ccc(F)c(O)c2)cc1` stands 1100 nM; under `CCCCCCP(=O)(O)COc1ccc(CCNC[C@H](O)COc2ccc(O)c3c2CCC(=O)N3)cc1`, 290 nM; under `COc1ccc(CCNC[C@@H](O)COc2ccc(O)c(CO)c2)cc1`, 4700 nM.
Still for that read-out and setting: as for `C[C@H](Cc1ccc(OCP(=O)(O)c2ccccc2)cc1)NC[C@H](O)COc1ccc(O)c(NS(C)(=O)=O)c1`, the figure is 120 nM; as for `COc1ccc(CCNC[C@@H](O)COc2cccc(O)c2)cc1`, 2000 nM; as for `COc1ccc(CCNC[C@@H](O)COc2ccc(O)cc2)cc1`, 1000 nM.

In the next assay the target is T1, Beta-3 adrenergic receptor. The assay can be described thus: Beta-3 agonist efficacy in an adenylate cyclase assay performed on chinese hamster ovary cells transfected with human Beta-3 adrenergic receptor; Inactive. It counts as functional, cell-based.
As to `COc1ccc(CCNC[C@H](O)COc2cccc(O)c2O)cc1`, the EC50 result is “Not Active”.

The target of another assay is T1, Beta-3 adrenergic receptor. The assay can be described thus: Beta-3 agonist efficacy in an adenylate cyclase assay performed on chinese hamster ovary cells transfected with human Beta-3 adrenergic receptor; inactive. It counts as functional, cell-based.
With `COc1ccc(CCNC[C@@H](O)COc2ccc(F)c(CO)c2)cc1`, the EC50 entry is listed as “Not Active”.
Same read-out and setting: under `COc1ccc(CCNC[C@@H](O)COc2cccc3nc(O)ccc23)cc1` stands “Not Active”; under `COc1ccc(CCNC[C@@H](O)COc2cccc3c2CCC(=O)N3)cc1`, “Not Active”.
As for `COc1ccc(CCNC[C@@H](O)COc2cc(O)cc(CO)c2)cc1`, the half-maximal effective concentration (EC50) result is “Not Active”.
On to `COc1ccc(CCNC[C@@H](O)COc2ccc(O)cc2CO)cc1`, for which the EC50 entry is recorded as “Not Active”.
For `COc1ccc(CCNC[C@@H](O)COc2ccccc2O)cc1`, the EC50 result is recorded as “Not Active”.
Still for that read-out and setting: as for `COc1ccc(CCNC[C@@H](O)COc2cccc3[nH]c(C(F)(F)F)nc23)cc1`, the entry is “Not Active”; as for `COc1ccc(CCNC[C@@H](O)COc2ccc3c(c2)NC(=O)CO3)cc1`, “Not Active”.
